Literature values as cited in US20240400784A1, “Method for Screening Solvent for Extracting Polyvinyl Chloride, Method for Recycling Waste, Recycled Polyvinyl Chloride, and Composition” (LG Chem, Ltd., priority 2021, published 2024).

Conditions: value in Table 1 of Document #1; swollen PVC and solvent volume based on PVC volume
For CCCCCO [1-Pentanol], the PVC swelling ratio is listed as 1.02. In the case of CCCC(C)=O [2-Pentanone], the PVC swelling ratio is given as 12.69. For CC(=O)CC(C)C [4-Methylpentan-2-one], the PVC swelling ratio is listed as 7.06. In the case of c1ccccc1 [Benzene], the PVC swelling ratio is listed as 1.07. For C1CCCCC1 [Cyclohexane], the PVC swelling ratio is listed as 1.04. For OC1CCCCC1 [Cyclohexanol], the PVC swelling ratio is given as 1.1. In the case of CCOC(C)=O [Ethyl acetate], the PVC swelling ratio is listed as 2.38. In the case of Water, the PVC swelling ratio is listed as 1.
